Read-outs that look alike come from different tables or passages of the source.
Columns and labels:
LC3-II [1] = assay type: cell-based, mouse
LC3-II [2] = assay type: cell-based, mouse; remark: listed apart in the source
[3] = test system: PrP^Sc in persistently prion (strain 22L) infected ScCAD5 cells; assay type: cell-based, mouse; settings: AR-12 1-5 μM, 72 hours, ScCAD5 22L; FIG. 3A
[4] = test system: PrP^Sc in persistently prion (strain 22L) infected ScN2a cells; assay type: cell-based, mouse
[5] = test system: PrP^Sc in ScMEFs infected with prion strains 22L, Me7 or RML; assay type: cell-based, mouse; settings: AR-12 3 μM, 72 hours, ScMEF strains 22L, FIG. 4A
[6] = test system: PrP^Sc in Atg5-KO ScN2a cells (strain 22L); assay type: cell-based, mouse

Row | Compound | LC3-II levels (LC3-II [1]) | LC3-II induction (LC3-II [2]) | LC3-II induction, comparison of cell lines (LC3-II [1]) | PrP^Sc levels (+PK) [3] | reduction of PrP^Sc (+PK) ([4]; AR-12 3 μM, 3 days (72 hours), ScN2a 22L, vs DMSO, FIG. 2A) [%] | reduction of PrP^Sc (+PK) ([4]; AR-12 3 μM, 72 hours, wild-type ScN2a cells, FIG. 8B) [%] | PrP^Sc (+PK) [5] | reduction of PrP^Sc (+PK) [6] | XTT toxicity at concentrations used (ScCAD5 cells) | XTT toxicity at concentrations used (ScMEF cells) | XTT toxicity at concentrations used (ScN2a cells) | reduction of PrP^Sc (+PK) ([4]; AR-14 2 μM, 72 hours, wild-type ScN2a cells, FIG. 8C) [%] | reduction of PrP^Sc (+PK) ([4]; AR-14 at a concentration of 2, 3 days (72 hours), ScN2a 22L, FIG. 5A) [%] | concentration at which already effective in reducing PrP^Sc ([4]; AR-14 tested at 0.5, 0.75 and 1.0 μM, 72 hours, ScN2a 22L, FIG. 5C) [µM]
1 | bafilomycin A1 [BA1, reference compound] | highest expression level of LC3-II | – | – | – | – | – | – | – | – | – | – | – | – | –
2 | NCC(=O)Nc1ccc(-n2nc(C(F)(F)F)cc2-c2ccc3c(ccc4ccccc43)c2)cc1 [AR-12, 2-amino-N-(4-(5-(phenanthren-2-yl)-3-(trifluoromethyl)-1H-pyrazol-1-yl)phenyl)acetamide] | time dependent and pronounced increase in LC3-II levels | about 2 fold | lowest induction was found in CAD5 cells | reduced, although slightly less than in ScN2a cells | 100 | ≥ 90 | strongly reduced | about 50% | non-toxic concentrations | non-toxic concentrations | non-toxic concentrations | – | – | –
3 | NCCCC[C@H](N)C(=O)Nc1ccc(-n2nc(C(F)(F)F)cc2-c2ccc3c(ccc4ccccc43)c2)cc1 [AR-14] | time dependent and pronounced increase in LC3-II levels | – | lowest induction was found in CAD5 cells | – | – | – | – | about 50% | – | – | non-toxic concentrations | 100 | 100 | 0.75

Source: patent publication US9974771B2 (priority 2016, dated 2018)
